Patent US20080085893A1, “MATRIX METALLOPROTEASE INHIBITORS” (priority 2006, published 2008)
“And” between values parts separate entries of the source, which are not always exact repeats. Equal values may be shown once.

How the values were obtained:
Format in all cases: biochemical
[1] = molecular target: T1, human MMP-13 (amino acids 103-268) (Homo sapiens, UniProt P45452); assay: MMP dose response assay for determining IC50, MMP-13; conditions: recombinant enzyme, fluorescent-quench substrate 100 nM
T1 construct: human MMP-13 (amino acids 103-268); made in house
Method: (§1) MMP Dose Response Assay for Determining IC50
(§2) The following method was used for determining IC50 values of different inhibitor compounds against multiple MMP enzymes. Frozen stocks of recombinantly produced MMPs were prepared in assay buffer (50 mM HEPES pH 7.4, 10 mM CaCl2, 0.05% Brij-35). The following domains were used to produce catalytically active version of the indicated MMP enzymes, human MMP-1 (amino acids 100-262), human MMP-2 (amino acids 1-660), human MMP-3 (amino acids 100-265), human MMP-9 (amino acids 107-446), human MMP-13 (amino acids 103-268), and rat MMP-9 (amino acids 108-446). Enzyme concentrations in the assay were determined empirically and set such that proteolytic activity was maintained in a linear range over the time-course of the experiment. Diluted enzymes were mixed with various test compounds that had been pre-diluted into assay buffer to establish concentration curves ranging from 10^−5 M to 10^−12 M. Compounds were diluted into assay buffer that contained an appropriate concentration of DMSO to maintain this at a constant in all wells. Each concentration for each test compound was tested in triplicate. MMP enzymes were equilibrated with compounds for 1 hour at room temperature, then a fluorescent-quench substrate (Acetyl-Cys(Eu)-Pro-Leu-Gly-Leu-Lys-(QSY7)-Ala-Arg-amide) was added to a final concentration of 100 nM. Following a 15 minute room temperature incubation, the assay plate was read on an EnVision plate reader using the following parameters: excitation wavelength 340 nM, emission wavelength 615 nM, number of flashes 100, delay before reading 300 milliseconds. Data was analyzed by first calculating average background value from wells that contained only substrate, and this value was subtracted from the entire plate. The 100%, or maximum value, was determined by averaging control wells that contained enzyme, substrate and DMSO. For each well, the percent of control was calculated by dividing the well value by the average DMSO value obtained above.
(§3) Additionally, compounds 27, 3, 65, 66, and 97 were tested in vitro for MMP-3, MMP-9 (rat), and MMP-13 antagonism.

[2] = molecular target: T2, human MMP-9 (amino acids 107-446) (Homo sapiens, UniProt P14780); assay: MMP dose response assay for determining IC50, MMP-9; conditions: recombinant enzyme, fluorescent-quench substrate 100 nM; read-out: MMP-9
T2 construct: human MMP-9 (amino acids 107-446); made in house
Procedure, shortened: (§4)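 Recombinant enzymes in 50 mM HEPES pH 7.4, 10 mM CaCl2, 0.05% Brij-35, at empirically set levels keeping activity linear, preincubated 1 h at room temperature with compound in triplicate. Fluorescence-quench peptide substrate (Eu/QSY7) added at 100 nM final. Background-subtracted signal expressed as percent of DMSO control for IC50.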

[3] = molecular target: T3, human MMP-3 (amino acids 100-265) (Homo sapiens, UniProt P08254); assay: MMP dose response assay for determining IC50, MMP-3; conditions: recombinant enzyme, fluorescent-quench substrate 100 nM
T3 construct: human MMP-3 (amino acids 100-265); made in house
Method: as §1, §2, §3

[4] = molecular target: T4, human MMP-2 (amino acids 1-660) (Homo sapiens, UniProt P08253); assay: MMP dose response assay for determining IC50, MMP-2; conditions: recombinant enzyme, fluorescent-quench substrate 100 nM; read-out: MMP-2
T4 construct: human MMP-2 (amino acids 1-660); made in house
T4 sequence (P08253 110-660): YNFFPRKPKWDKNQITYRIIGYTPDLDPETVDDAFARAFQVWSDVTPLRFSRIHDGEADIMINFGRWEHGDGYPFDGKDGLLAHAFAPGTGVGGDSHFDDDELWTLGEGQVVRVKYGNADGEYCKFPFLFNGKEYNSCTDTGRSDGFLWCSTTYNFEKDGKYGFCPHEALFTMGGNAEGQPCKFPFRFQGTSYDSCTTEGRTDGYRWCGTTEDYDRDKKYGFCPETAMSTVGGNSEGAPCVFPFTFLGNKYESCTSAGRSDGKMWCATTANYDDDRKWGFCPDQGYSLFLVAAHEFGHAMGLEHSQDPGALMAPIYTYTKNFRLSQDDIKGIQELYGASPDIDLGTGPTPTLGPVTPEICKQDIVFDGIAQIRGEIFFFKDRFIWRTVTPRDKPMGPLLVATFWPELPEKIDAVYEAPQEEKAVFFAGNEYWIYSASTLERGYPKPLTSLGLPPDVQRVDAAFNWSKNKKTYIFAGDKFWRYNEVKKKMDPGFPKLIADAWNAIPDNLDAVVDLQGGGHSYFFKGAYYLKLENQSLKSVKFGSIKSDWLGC
Procedure, shortened: as §4

[5] = molecular target: T5, human MMP-1 (amino acids 100-262) (Homo sapiens, UniProt P03956); assay: MMP dose response assay for determining IC50, MMP-1; conditions: recombinant catalytic domain, fluorescent-quench substrate 100 nM
T5 construct: human MMP-1 (amino acids 100-262); made in house
T5 sequence (P03956 100-262): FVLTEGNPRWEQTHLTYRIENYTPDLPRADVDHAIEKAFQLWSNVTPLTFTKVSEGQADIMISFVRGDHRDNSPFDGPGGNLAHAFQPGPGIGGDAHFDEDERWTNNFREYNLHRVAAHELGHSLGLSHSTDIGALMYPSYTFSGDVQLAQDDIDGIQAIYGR
Procedure, shortened: as §4

[6] = molecular target: T6, rat MMP-9 (amino acids 108-446) (Rattus norvegicus, UniProt P50282); assay: MMP dose response assay for determining IC50, rat MMP-9; conditions: rat enzyme
T6 construct: rat MMP-9 (amino acids 108-446); made in house
Method: as §1
as §2, with “Diluted enzymes were mixed with various test compounds that had been pre-diluted into assay buffer to establish concentration curves ranging from 10^−5 M to 10^−12 M. Compounds were diluted into assay buffer that contained an appropriate concentration of DMSO to maintain this at a constant in all wells. Each concentration for each test compound was tested in triplicate. MMP enzymes were equilibrated with compounds for 1 hour at room temperature, then a fluorescent-quench substrate (Acetyl-Cys(Eu)-Pro-Leu-Gly-Leu-Lys-(QSY7)-Ala-Arg-amide) was added to a final concentration of 100 nM.” left out, “For each well, the percent of control was calculated by dividing the well value by the average DMSO value obtained above.” left out

T3 sequence (P08254 100-265): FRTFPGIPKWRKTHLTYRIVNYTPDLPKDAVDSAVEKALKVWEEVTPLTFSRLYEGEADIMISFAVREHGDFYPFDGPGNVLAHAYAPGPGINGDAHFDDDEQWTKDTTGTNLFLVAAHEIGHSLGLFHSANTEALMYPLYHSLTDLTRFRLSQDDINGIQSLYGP
T2 sequence (P14780 107-446): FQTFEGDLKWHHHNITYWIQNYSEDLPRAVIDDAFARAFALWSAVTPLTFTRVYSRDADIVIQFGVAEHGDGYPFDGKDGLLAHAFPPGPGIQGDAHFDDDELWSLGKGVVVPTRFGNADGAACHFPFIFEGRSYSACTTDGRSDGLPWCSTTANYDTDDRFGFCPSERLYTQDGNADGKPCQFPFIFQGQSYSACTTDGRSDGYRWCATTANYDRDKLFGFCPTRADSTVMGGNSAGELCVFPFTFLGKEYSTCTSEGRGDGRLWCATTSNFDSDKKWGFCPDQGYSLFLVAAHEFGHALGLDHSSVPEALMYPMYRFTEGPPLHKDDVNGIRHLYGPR
T6 sequence (P50282 108-446): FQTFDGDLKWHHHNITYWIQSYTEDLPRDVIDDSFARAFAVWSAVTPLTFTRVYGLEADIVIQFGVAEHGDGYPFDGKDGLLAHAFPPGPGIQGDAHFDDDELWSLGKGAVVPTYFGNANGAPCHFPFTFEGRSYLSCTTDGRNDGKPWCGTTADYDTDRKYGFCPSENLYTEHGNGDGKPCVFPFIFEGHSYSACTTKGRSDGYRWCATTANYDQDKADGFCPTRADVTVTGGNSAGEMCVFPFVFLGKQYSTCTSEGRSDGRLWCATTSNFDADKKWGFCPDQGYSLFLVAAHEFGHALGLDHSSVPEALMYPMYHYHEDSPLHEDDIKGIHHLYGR

IC50 [1]	IC50 [2]	IC50 [3]	IC50 [4]	IC50 [5]	IC50 [6]	SMILES
411 nM	0.65 nM	492 nM	0.37 nM	> 10000 nM	–	Cc1ccc(Oc2ccc(N(C[C@@H](C(=O)NO)N3CCC(O)(c4ccc(Br)cc4)CC3)S(C)(=O)=O)cc2)cc1 [Example 65, N-Hydroxy (2S)-2-[4-(4-bromophenyl)-4-hydroxypiperidin-1-yl]-3-{N-[4-(4-methylphenoxy)phenyl],N-methanesulfonylamino}propionamide]
30.5 nM and 56.1 nM	4.06 nM and 3.53 nM and 2.37 nM and 2.76 nM and 7.64 nM and 2.89 nM and 2.08 nM and 2.79 nM and 18.4 nM and 7.46 nM	63.7 nM and 105 nM	–	–	–	CS(=O)(=O)N(C[C@@H](C(=O)NO)N1CCOCC1)c1ccc(Oc2ccc(C(F)(F)F)cc2)cc1 [Example 3, N-Hydroxy (2S)-2-(morpholin-4-yl)-3-{N-[4-(4-trifluoromethylphenoxy)phenyl],N-methanesulfonylamino}propionamide]
847 nM	2.88 nM	822 nM	41.2 nM	> 10000 nM	–	Cc1ccc(Oc2ccc(N(C[C@H](NCCc3c[nH]c4ccccc34)C(=O)NO)S(C)(=O)=O)cc2)cc1 [Example 66]
12.4 nM	5.48 nM and 12.2 nM	218 nM	17.4 nM and 29.9 nM	–	175 nM	CC(C)N(C)[C@@H](CN(c1ccc(Oc2ccc(C(F)(F)F)cc2)cc1)S(C)(=O)=O)C(=O)NO [Example 97, N-Hydroxy (2S)-2-[N-methyl,N-(2-prolyl)amino]-3-{N-[4-(4-trifluoromethylphenoxy)phenyl],N-methanesulfonylamino}propionamide]
–	106 nM	–	472 nM	> 10000 nM	–	CS(=O)(=O)N(C[C@@H](O)C(=O)NO)c1ccc(Oc2ccccc2)cc1 [Example 11, N-Hydroxy (2R)-2-hydroxy-3-[N-(4-phenoxy)phenyl,N-methanesulfonylamino]propionamide]
3.53 nM	1.52 nM and 2.56 nM and 0.93 nM and 4.05 nM and 2.49 nM	136 nM	3.21 nM and 4.98 nM and 4.19 nM and 10.7 nM and 8.28 nM	> 10000 nM	25.8 nM	Cc1ccc(Oc2ccc(N(C[C@@H](C(=O)NO)N3CCOCC3)S(C)(=O)=O)cc2)cc1 [Example 27, N-Hydroxy (2S)-3-{N-[4-(4-methylphenoxy)phenyl],N-methanesulfonylamino}-2-(morpholin-4-yl)propionamide]
–	1.27 nM	–	11.4 nM	9220 nM	–	Cc1ccc(Oc2ccc(N(C[C@H](NCC(C)C)C(=O)NO)S(C)(=O)=O)cc2)cc1 [Example 36, N-Hydroxy (2S)-3-{N-[4-(4-methylphenoxy)phenyl],N-methanesulfonylamino}-2-(2-methylpropyl)aminopropionamide]
–	4.81 nM	–	8.55 nM	> 10000 nM	–	CC(=O)N1CCN([C@@H](CN(c2ccc(Oc3ccc(C(F)(F)F)cc3)cc2)S(C)(=O)=O)C(=O)NO)CC1 [Example 84, N-Hydroxy (2S)-2-(4-acetylpiperazin-1-yl)-3-{N-[4-(4-trifluoromethylphenoxy)phenyl],N-methanesulfonylamino}propionamide]
–	68.7 nM	–	401 nM	> 10000 nM	–	Cc1ccc(Oc2ccc(N(C[C@H](O)C(=O)NO)S(=O)(=O)Cc3cccnc3)cc2)cc1 [Example 32, N-Hydroxy (2S)-2-hydroxy-3-{N-[4-(4-methylphenoxy)phenyl],N-(pryidin-3-yl)methylsulfonylamino}propionamide]
–	1.94 nM and 4.5 nM	–	6.21 nM and 13.5 nM	> 10000 nM	–	CS(=O)(=O)N1CCN([C@@H](CN(c2ccc(Oc3ccc(C(F)(F)F)cc3)cc2)S(C)(=O)=O)C(=O)NO)CC1 [Example 83, N-Hydroxy (2S)-2-(4-methanesulfonylpiperazin-1-yl)-3-{N-[4-(4-trifluoromethylphenoxy)phenyl],N-methanesulfonylamino}propionamide]
